Results from patent US20230338391A1, “TREATMENT FOR DEPRESSION” (TAKEDA PHARMACEUTICAL COMPANY LIMITED, priority 2020, published 2023).

Tested on: healthy subjects
Assay: TMS crossover study: safety and tolerability
Conditions: 0.5 mg/kg IV infusion, 20 subjects

SMILES: CNC1(c2ccccc2Cl)CCCCC1=O (stereo not shown) [ketamine, reference compound]
- discontinuation because of AEs: One subject in the ketamine treatment was discontinued from study drug because of AEs
